Some test systems named below: Candida parapsilosis; Bacillus subtilis DELTA; Candida krusei ATCC 6258; Escherichia coli; Staphylococcus aureus; Klebsiella pneumoniae; Bibersteinia trehalosi; Pasteurella multocida; Aspergillus fumigatus; Yersinia enterocolitica; Salmonella sp.
Test in all cases: ≥ marks a high value that may be exact or a test limit, other limits are often not marked, values filed in µg/mL are converted to µM
In assay [1] the test system is Escherichia coli DH5alpha.
The test system of assay [2] is Pseudomonas aeruginosa PAO1.
For assay [3], the system named is Zymomonas mobilis ATCC 10988.
Assay [4] concerns Candida parapsilosis ATCC 90018.
Assay [5] concerns Candida tropicalis ATCC 750.
In assay [6] the test system is Escherichia coli ATCC 25922.
Assay [7] deals with Candida albicans ATCC 10231.
In assay [8] the test system is Candida glabrata ATCC 2001.
Assay [9] has as its system Staphylococcus aureus ATCC 29213.
The subject of assay [10] is Pseudomonas aeruginosa ATCC 27853.
In assay [11] the test system is Staphylococcus aureus KCTC 3881.
Assay [12] has as its system Bacillus subtilis ATCC 6633.
Assay [13] concerns Escherichia coli KCTC 2433.
Assay [14] concerns Staphylococcus epidermidis ATCC 12228.
Assay [15] concerns Klebsiella pneumoniae ATCC 10031.
Assay [16] relates to Proteus mirabilis ATCC 25933.
For assay [17], the system named is Shigella dysenteriae ATCC 9752.
Assay [18] concerns Staphylococcus aureus ATCC 25923.
Assay [19] relates to Micrococcus luteus ATCC 4698.
Assay [20] concerns Candida albicans ATCC 36232.
Assay [21] has as its system Pseudomonas aeruginosa ATCC 9027.
The subject of assay [22] is Bifidobacterium longum subsp. infantis.
The test system of assay [23] is Salmonella enterica subsp. arizonae.
Assay [24] deals with Mannheimia haemolytica Serovar 6.
For assay [25], the system named is Mannheimia haemolytica Serovar 2.
Assay [26] relates to Mannheimia haemolytica Serovar 1.
The subject of assay [27] is Corynebacterium pseudotuberculosis ATCC 19410.
The test system of assay [28] is Salmonella enterica subsp. enterica serovar Enteritidis.
Assay [29] relates to Cryptococcus neoformans ATCC 32264.
For assay [30], the system named is Staphylococcus aureus ATCC 43300.

For orientation: MIC means the least concentration at which growth counts as inhibited. Higher therefore signals a need for much substance.

Converted amounts (≈) assume the structure as drawn.

Turning to `CC[C@H](C)[C@H](NC(=O)[C@H](CCCN=C(N)N)NC(=O)[C@H](CCCCN)NC(=O)[C@H](Cc1ccccc1)NC(C)=O)C(=O)N[C@H](C(=O)N[C@@H](CCC(N)=O)C(=O)N[C@H](C(=O)N[C@H](C(=O)N[C@@H](CCCCN)C(=O)N[C@@H](CCCCN)C(=O)N[C@@H](Cc1ccccc1)C(=O)N[C@@H](CC(C)C)C(=O)N[C@@H](CCCN=C(N)N)C(N)=O)[C@@H](C)CC)[C@@H](C)CC)C(C)C` [FKRIVQIIKKFLR], the MIC with Candida parapsilosis worked out at 17.8 µM (≈ 30.7 µg/mL); in the assay with Bacillus subtilis DELTA it was 11.8 µM (≈ 20.5 µg/mL); in assay [1], 29.6 µM (≈ 51.2 µg/mL); in assay [2] it was 1.78 µM (≈ 3.07 µg/mL); in assay [3] it was 2.96 µM (≈ 5.12 µg/mL).
`CC[C@H](C)[C@H](NC(=O)CN)C(=O)N[C@@H](CC(C)C)C(=O)N[C@@H](CC(=O)O)C(=O)N[C@H](C(=O)N[C@@H](CC(C)C)C(=O)N[C@@H](CC(N)=O)C(=O)N[C@@H](CCCCN)C(=O)N[C@H](C(=O)N[C@@H](CO)C(=O)N[C@@H](CC(N)=O)C(=O)N[C@@H](CC(C)C)C(=O)N[C@@H](Cc1ccccc1)C(N)=O)C(C)C)[C@@H](C)CC` [GILDILNKVSNLF]: the MIC in [4] is at least 125 µM; in assay [5], 31.2 µM (≈ 45.1 µg/mL); in [6] it was 62.5 µM (≈ 90.3 µg/mL); in [7], 31.2 µM (≈ 45.1 µg/mL); in the assay with Candida krusei ATCC 6258, at least 62.5 µM; in [8], at least 125 µM. Besides, the values for the minimum inhibitory concentration (MIC) in [9] and in assay [10] were 8 µM (≈ 11.6 µg/mL) and 31.2 µM (≈ 45.1 µg/mL), respectively.
With `CC[C@H](C)[C@@H]1NC(=O)[C@H](CCCCN)NC(=O)[C@@H](NC(=O)[C@H](CCCCN)NC(=O)[C@H](CC(C)C)NC(=O)[C@H](CCC(N)=O)NC(=O)[C@H](CCC(=O)O)NC(=O)[C@H](CC(C)C)NC(=O)[C@H](CC(C)C)NC(=O)[C@H](CO)NC(=O)CNC(=O)CNC(=O)[C@@H](NC(=O)[C@H](CC(N)=O)NC(=O)[C@H](CCCCN)NC(=O)[C@H](C)NC(=O)[C@@H](NC(=O)[C@H](CC(N)=O)NC(=O)[C@H](CCCCN)NC(=O)CNC(=O)[C@@H](NC(=O)[C@H](C)NC(=O)[C@H](CCCCN)NC(=O)[C@H](CC(C)C)NC(=O)[C@@H](NC(=O)CNC(=O)[C@@H](NC(=O)[C@@H](NC(=O)[C@@H](NC(=O)[C@H](CO)NC(=O)[C@H](Cc2ccccc2)NC(=O)[C@H](CC(C)C)NC(=O)CN)C(C)C)C(C)C)[C@@H](C)O)C(C)C)C(C)C)C(C)C)C(C)C)CSSC[C@@H](C(=O)O)NC(=O)CNC(=O)CNC(=O)[C@H](CO)NC1=O` [GLFSVVTGVLKAVGKNVAKNVGGSLLEQLKCKISGGC], the MIC in assay [11] is 6.8 µM (≈ 25 µg/mL); in assay [12], 13.6 µM (≈ 50 µg/mL); in assay [6] it was 15 µM (≈ 55.1 µg/mL); in assay [13], 16.3 µM (≈ 60 µg/mL); in assay [14], 13.6 µM (≈ 50 µg/mL); in [15], 13.6 µM (≈ 50 µg/mL). Moreover, the MIC in assay [16] is 27.2 µM (≈ 99.9 µg/mL); in assay [17], 13.6 µM (≈ 50 µg/mL); in assay [18], 30 µM (≈ 110 µg/mL); in [19] it was 1.7 µM (≈ 6.25 µg/mL); in assay [20] it was 13.6 µM (≈ 50 µg/mL); in [21], over 27.2 µM.
For `CC[C@H](C)[C@H](NC(=O)[C@H](CCC(N)=O)NC(=O)[C@H](Cc1cnc[nH]1)NC(=O)[C@@H](NC(=O)[C@@H]1CCCN1C(=O)[C@H](CC(N)=O)NC(=O)[C@H](CC(C)C)NC(=O)[C@@H](N)CC(C)C)[C@@H](C)O)C(=O)N[C@@H](Cc1ccc(O)cc1)C(=O)N1CCC[C@H]1C(=O)N[C@H](C(=O)N[C@H](C(=O)N[C@@H](CCC(N)=O)C(=O)N1CCC[C@H]1C(=O)N[C@@H](CC(C)C)C(=O)N[C@@H](C)C(=O)N1CCC[C@H]1C(=O)N[C@H](C(=O)N[C@@H](Cc1cnc[nH]1)C(=O)N[C@@H](CC(N)=O)C(=O)N1CCC[C@H]1C(=O)N[C@H](C(=O)N[C@@H](CO)C(=O)O)[C@@H](C)CC)C(C)C)[C@@H](C)O)C(C)C` [LLNPTHQIYPVTQPLAPVHNPIS], the figures for the MIC (against Escherichia coli; in [22]; with Staphylococcus aureus) were over 1180 µM, at least 1180 µM and over 1180 µM, respectively.
Turning to `CC[C@H](C)[C@H](NC(=O)[C@H](CCCCN)NC(=O)[C@H](CCCN=C(N)N)NC(=O)CNC(=O)[C@H](CC(C)C)NC(=O)[C@H](C)NC(=O)[C@H](CCCN=C(N)N)NC(=O)[C@H](CC(C)C)NC(=O)CNC(=O)[C@@H](N)CCCN=C(N)N)C(=O)N[C@@H](C)C(=O)N[C@@H](Cc1cnc[nH]1)C(=O)NCC(=O)N[C@H](C(=O)N[C@@H](CCCCN)C(=O)N[C@@H](C)C(=O)N[C@@H](Cc1ccc(O)cc1)C(=O)NCC(=O)O)C(C)C` [RGLRALGRKIAHGVKAYG], the MIC was over 10.4 µM with Klebsiella pneumoniae; 10.4 µM (≈ 20 µg/mL) in the assay on Bibersteinia trehalosi; 10.4 µM (≈ 20 µg/mL) in [23]; 10.4 µM (≈ 20 µg/mL) in [24]; 4.32 µM (≈ 8.3 µg/mL) in assay [25]; 10.4 µM (≈ 20 µg/mL) with Pasteurella multocida. For the same molecule, the MIC is 5.2 µM (≈ 10 µg/mL) in [2]; 5.2 µM (≈ 10 µg/mL) in assay [26]; 10.4 µM (≈ 20 µg/mL) in assay [27]; 20.8 µM (≈ 40 µg/mL) against Aspergillus fumigatus; over 10.4 µM in the assay on Staphylococcus aureus.
Take `NC(=O)CC[C@H](NC(=O)[C@H](Cc1c[nH]c2ccccc12)NC(=O)[C@H](Cc1c[nH]c2ccccc12)NC(=O)[C@H](CCCN=C(N)N)NC(=O)[C@H](CCCN=C(N)N)NC(=O)[C@H](Cc1c[nH]c2ccccc12)NC(=O)[C@H](CCC(N)=O)NC(=O)[C@@H](N)CCCN=C(N)N)C(=O)N[C@@H](CCCN=C(N)N)C(N)=O` [RQWRRWWQR]: the MIC was determined as 8.58 µM (≈ 12.5 µg/mL) against Escherichia coli; 8.58 µM (≈ 12.5 µg/mL) in assay [28]; 12.5 µM (≈ 18.2 µg/mL) in assay [29]; 17.2 µM (≈ 25 µg/mL) in assay [6]; 50 µM (≈ 72.8 µg/mL) in assay [7]; 17.2 µM (≈ 25 µg/mL) against Yersinia enterocolitica. Also, the MIC is 34.3 µM (≈ 50 µg/mL) in [9], 17.2 µM (≈ 25 µg/mL) against Salmonella sp. and 17.2 µM (≈ 25 µg/mL) in assay [30].
